This note sets out measurements from PubChem BioAssay AID210 (DTP/NCI, 2004).

Values joined by “and” are separate entries in the source; they are usually repeats but may differ in a detail not shown here. Equal entries are not always repeated. Toxic doses and inconclusive results are not listed.

This test relates to CD2F1 mice, ip Colon 26 adenocarcinoma, median survival T/C. The experiment in a line: NCI In Vivo Anticancer Drug Screen. Data for tumor model Colon 26 Adenocarcinoma (intraperitoneal) in CD2F1 (CDF1) mice. As to conditions: endpoint: median survival time, higher = longer survival. As for the experimental part:
The antitumor activity of compounds was measured in mice bearing transplantable tumors. Survival or tumor size were measured and the results are expressed as the measurement made in the treated group (T) divided by the measurement made in the vehicle treated control group (C). The tumor model used in this assay is Colon 26 Adenocarcinoma (intraperitoneal) in CD2F1 (CDF1) mice

Where [1] appears, read: dose: 12.5 mg/kg/injection, schedule: Q04DX003 (ip), vehicle: saline with Tween-80.
Where [2] appears, read: dose: 25.0 mg/kg/injection, schedule: Q04DX003 (ip), vehicle: saline with Tween-80.
Setting [3] is: dose: 50.0 mg/kg/injection, schedule: Q04DX003 (ip), vehicle: saline with Tween-80.
[4] abbreviates: dose: 100.0 mg/kg/injection, schedule: Q04DX003 (ip), vehicle: saline with Tween-80.
Setting [5] is: dose: 200.0 mg/kg/injection, schedule: Q04DX003 (ip), vehicle: saline with Tween-80.
The mark [6] stands for this setting: dose: 400.0 mg/kg/injection, schedule: Q04DX003 (ip), vehicle: saline with Tween-80.
Where [7] appears, read: dose: 50.0 mg/kg/injection, schedule: Q04DX002 (ip), vehicle: Klucel (hydroxypropylcellulose) (HPC).
[8] abbreviates: dose: 100.0 mg/kg/injection, schedule: Q04DX002 (ip), vehicle: Klucel (hydroxypropylcellulose) (HPC).
Where [9] appears, read: dose: 200.0 mg/kg/injection, schedule: Q04DX002 (ip), vehicle: Klucel (hydroxypropylcellulose) (HPC).
Setting [10] is: dose: 10.0 mg/kg/injection, schedule: Q01DX009 (ip), vehicle: acid diluted with saline.
Where [11] appears, read: dose: 40.0 mg/kg/injection, schedule: Q01DX009 (ip), vehicle: acid diluted with saline.

In the case of `CCSC(=O)N1c2ccc(OC)cc2C=CC1C#N` (stereo unspecified), the T/C under setting [1] is 106 % of control; the T/C under setting [2] was 104 % of control; the T/C under setting [3] was 110 % of control; the T/C under setting [4] is 107 % of control; the T/C (dose: 175.0 mg/kg/injection, schedule: Q04DX002 (ip), vehicle: saline with Tween-80) was 110 % of control; the T/C under setting [5] was 109 % of control. In addition, the T/C runs as follows: (dose: 350.0 mg/kg/injection, schedule: Q04DX002 (ip), vehicle: saline with Tween-80) 124 % of control; under setting [6], 115 % of control; (dose: 700.0 mg/kg/injection, schedule: Q04DX002 (ip), vehicle: saline with Tween-80) 100 % of control; (dose: 1400.0 mg/kg/injection, schedule: Q04DX002 (ip), vehicle: saline with Tween-80) 98 % of control.

As for `CC1OC(=O)C(C(C)C)NC(=O)C(C(C)C)OC(=O)C(C(C)C)NC(=O)C(C)OC(=O)C(C(C)C)NC(=O)C(C(C)C)OC(=O)C(C(C)C)NC(=O)C(C)OC(=O)C(C(C)C)NC(=O)C(C(C)C)OC(=O)C(C(C)C)NC1=O` (stereo unspecified), the T/C reads like this: (dose: 0.75 mg/kg/injection, schedule: Q04DX003 (ip), vehicle: Klucel (hydroxypropylcellulose) (HPC)) 181 % of control; (dose: 1.5 mg/kg/injection, schedule: Q04DX003 (ip), vehicle: Klucel (hydroxypropylcellulose) (HPC)) 186 % of control; (dose: 3.0 mg/kg/injection, schedule: Q04DX003 (ip), vehicle: Klucel (hydroxypropylcellulose) (HPC)) 200 % of control; (dose: 6.0 mg/kg/injection, schedule: Q04DX003 (ip), vehicle: Klucel (hydroxypropylcellulose) (HPC)) 193 % of control; (dose: 12.0 mg/kg/injection, schedule: Q04DX003 (ip), vehicle: Klucel (hydroxypropylcellulose) (HPC)) 165 % of control.

On to `CC1CC2OC2/C=C\C=C\C(=O)Cc2c(Cl)c(O)cc(O)c2C(=O)O1` (stereo unspecified), for which the T/C (dose: 12.5 mg/kg/injection, schedule: Q04DX002 (ip), vehicle: Klucel (hydroxypropylcellulose) (HPC)) is 94 % of control; the T/C (dose: 25.0 mg/kg/injection, schedule: Q04DX002 (ip), vehicle: Klucel (hydroxypropylcellulose) (HPC)) is 92 % of control; the T/C under setting [7] was 99 % of control; the T/C under setting [8] was 99 % of control; the T/C under setting [9] was 95 % of control.

`ClC(Cl)=C(Cl)Cl`: the T/C is, setting by setting: (dose: 75.0 mg/kg/injection, schedule: Q04DX002 (ip), vehicle: other) 101 % of control; (dose: 150.0 mg/kg/injection, schedule: Q04DX002 (ip), vehicle: other) 93 % of control; (dose: 300.0 mg/kg/injection, schedule: Q04DX002 (ip), vehicle: other) 89 % of control.

Take `CN(C)CCNc1ccc(NCCN(C)C)c2c1C(=O)c1ccccc1C2=O`: the T/C is, setting by setting: (dose: 5.0 mg/kg/injection, schedule: Q01DX009 (ip), vehicle: acid diluted with saline) 115 % of control and 119 % of control; under setting [10], 108 % of control and 123 % of control and 202 % of control; under setting [11], 104 % of control and 105 % of control.

With `C/C(=C\c1ccccc1)[N+](=O)[O-]`, the T/C runs as follows: (dose: 3.12 mg/kg/injection, schedule: Q04DX003 (ip), vehicle: Klucel (hydroxypropylcellulose) (HPC)) 91 % of control; (dose: 6.25 mg/kg/injection, schedule: Q04DX003 (ip), vehicle: Klucel (hydroxypropylcellulose) (HPC)) 97 % of control; (dose: 12.5 mg/kg/injection, schedule: Q04DX003 (ip), vehicle: Klucel (hydroxypropylcellulose) (HPC)) 96 % of control; (dose: 25.0 mg/kg/injection, schedule: Q04DX003 (ip), vehicle: Klucel (hydroxypropylcellulose) (HPC)) 90 % of control.

For `Cc1[nH]c(=O)[nH]c(=O)c1N(CCF)CCCl`, the T/C by setting is: (dose: 8.0 mg/kg/injection, schedule: Q04DX002 (ip), vehicle: Klucel (hydroxypropylcellulose) (HPC)) 111 % of control and 112 % of control; (dose: 16.0 mg/kg/injection, schedule: Q04DX002 (ip), vehicle: Klucel (hydroxypropylcellulose) (HPC)) 114 % of control and 121 % of control; (dose: 32.0 mg/kg/injection, schedule: Q04DX002 (ip), vehicle: Klucel (hydroxypropylcellulose) (HPC)) 122 % of control.

For `Cc1ccc(NC(=O)Oc2ccc(Br)cc2Br)c([N+](=O)[O-])c1`, the T/C was 97 % of control under setting [1]; 100 % of control under setting [2]; 100 % of control under setting [3]; 107 % of control under setting [4]; 117 % of control under setting [5]; 123 % of control under setting [6].

With `N[C@@H](Cc1ccc(N(CCCl)CCCl)cc1)C(=O)O`, the T/C reads like this: (dose: 1.0 mg/kg/injection, schedule: Q04DX002 (ip), vehicle: suspension in saline) 162 % of control; (dose: 1.25 mg/kg/injection, schedule: Q04DX003 (ip), vehicle: saline) 175 % of control; (dose: 2.0 mg/kg/injection, schedule: Q04DX002 (ip), vehicle: suspension in saline) 231 % of control; (dose: 2.5 mg/kg/injection, schedule: Q04DX003 (ip), vehicle: suspension in saline) 181 % of control; (dose: 4.0 mg/kg/injection, schedule: Q04DX002 (ip), vehicle: suspension in saline) 249 % of control; (dose: 5.0 mg/kg/injection, schedule: Q04DX003 (ip), vehicle: suspension in saline) 186 % of control. For the same molecule, the T/C is, setting by setting: (dose: 8.0 mg/kg/injection, schedule: Q04DX002 (ip), vehicle: suspension in saline) 277 % of control; (dose: 10.0 mg/kg/injection, schedule: Q04DX003 (ip), vehicle: suspension in saline) 182 % of control; (dose: 16.0 mg/kg/injection, schedule: Q04DX002 (ip), vehicle: suspension in saline) 226 % of control; (dose: 20.0 mg/kg/injection, schedule: Q04DX003 (ip), vehicle: suspension in saline) 216 % of control.

On to `CN(C)CCNc1ccc(O)c2c1C(=O)c1ccccc1C2=O`, for which the T/C under setting [10] is 121 % of control; the T/C (dose: 20.0 mg/kg/injection, schedule: Q01DX009 (ip), vehicle: acid diluted with saline) was 104 % of control and 115 % of control; the T/C under setting [11] is 103 % of control; the T/C (dose: 80.0 mg/kg/injection, schedule: Q01DX009 (ip), vehicle: acid diluted with saline) is 115 % of control and 120 % of control.

Regarding `NC(=O)c1ncn(C2OC(CO)C(O)C2O)c1O` (stereo unspecified), the T/C is 107 % of control under setting [7]; 98 % of control under setting [8]; 107 % of control under setting [9]; 111 % of control (dose: 400.0 mg/kg/injection, schedule: Q04DX002 (ip), vehicle: Klucel (hydroxypropylcellulose) (HPC)).

For the molecule `OC(CBr)C(O)C(O)C(O)CBr` (stereo unspecified), the T/C is 114 % of control under setting [2]; 107 % of control (dose: 50.0 mg/kg/injection, schedule: Q04DX003 (ip), vehicle: Klucel (hydroxypropylcellulose) (HPC)); 102 % of control under setting [3]; 117 % of control (dose: 100.0 mg/kg/injection, schedule: Q04DX003 (ip), vehicle: Klucel (hydroxypropylcellulose) (HPC)); 96 % of control under setting [4]; 102 % of control under setting [5]. For the same molecule, the T/C is 114 % of control under setting [6] and 163 % of control (dose: 800.0 mg/kg/injection, schedule: Q04DX003 (ip), vehicle: Klucel (hydroxypropylcellulose) (HPC)).

For `NNC(=O)c1ccncc1`, the T/C was 103 % of control (dose: 72.0 mg/kg/injection, schedule: Q04DX002 (ip), vehicle: saline) and 102 % of control (dose: 144.0 mg/kg/injection, schedule: Q04DX002 (ip), vehicle: saline).

Take `O=C1c2ccccc2C(=O)c2c(NCCCNCCO)ccc(NCCCNCCO)c21`: the T/C was 107 % of control (dose: 16.0 mg/kg/injection, schedule: Q01DX009 (ip), vehicle: acid diluted with saline); 111 % of control (dose: 32.0 mg/kg/injection, schedule: Q01DX009 (ip), vehicle: acid diluted with saline); 123 % of control (dose: 64.0 mg/kg/injection, schedule: Q01DX009 (ip), vehicle: acid diluted with saline).

Regarding `CNc1nc2c(N)ncnc2n1C1OC(CO)C(O)C1O` (stereo unspecified), the T/C is, setting by setting: (dose: 0.78 mg/kg/injection, schedule: Q04DX002 (ip), vehicle: saline) 92 % of control; (dose: 1.56 mg/kg/injection, schedule: Q04DX002 (ip), vehicle: saline) 93 % of control; (dose: 3.13 mg/kg/injection, schedule: Q04DX002 (ip), vehicle: saline) 92 % of control; (dose: 6.25 mg/kg/injection, schedule: Q04DX002 (ip), vehicle: saline) 96 % of control; (dose: 12.5 mg/kg/injection, schedule: Q04DX002 (ip), vehicle: saline) 102 % of control; (dose: 25.0 mg/kg/injection, schedule: Q04DX002 (ip), vehicle: saline) 96 % of control.
